Here are results for 16 compounds from ChEMBL document CHEMBL1145561, “Pyrrolo[1,2-b]pyridazin-2-ones as potent inhibitors of HCV NS5B polymerase” (Bioorg Med Chem Lett, 2008).

The nature of data set [1]: Solubility at pH 7.5. In kind it is physicochemical. The conditions noted are these: buffer.
Data set [2] can be described thus: Apparent permeability from apical to basolateral side in human Caco-2 cells at 10 uM. The format is ADME, cell-based. (In general: Passage across Caco-2 layers is used to estimate intestinal permeability.)
Data set [3] is described as follows: Oral bioavailability in cynomolgus monkey at 1 mg/kg. The format is ADME, organism-based, Macaca fascicularis. The conditions noted are these: in vivo.
Data set [4] relates to Cynomolgus monkey. In words: AUC (infinity) in cynomolgus monkey at 1 mg/kg, iv. The format is ADME, organism-based, Macaca fascicularis, Plasma. Details: time infinity, dose 1 mg/kg, route intravenous. Conditions: in vivo.
Data set [5] concerns Cynomolgus monkey. In words: AUC (infinity) in cynomolgus monkey at 1 mg/kg, po. The format is ADME, organism-based, Macaca fascicularis, Plasma. Details: time infinity, dose 1 mg/kg, route oral. Conditions: in vivo.
Data set [6] can be described thus: (§1) Metabolic stability in human liver microsomes assessed as half life at 5 uM. The format is ADME, Microsome. Conditions: liver microsomes. On the technique in general: Liver microsomes are a subcellular fraction often used to study metabolism.
Data set [7] concerns Hepatitis C virus. Briefly: Antiviral activity against HCV 1b in human Huh7/C24 cells after 72 hrs by replicon cell assay. In kind it is functional, organism-based, Hepacivirus hominis. The conditions noted are these: genotype 1b, Huh-7, 72 h. (A replicon is a self-replicating genome or part of one, used to study replication in cells.)
Data set [8] in a line: Cytotoxicity against human Huh7/C24 cells after 72 hrs. The format is cell-based, Huh-7.
Data set [9] in a line: Metabolic stability in human liver microsomes assessed as remains after 60 mins at 5 uM. In kind it is ADME, Microsome. Conditions: read-out: Stability.
Data set [10] concerns Hepatitis C virus. Briefly: Inhibition of HCV 1b NS5B RNA polymerase. Details: species or system Hepatitis C virus subtype 1b.
For a further data set, the system named is Liver microsomes. The description is as §1. In kind it is ADME, Microsome. Conditions: microsomes, 5 µM.
Data set [11] is described as follows: Clearance in cynomolgus monkey at 1 mg/kg, iv. The format is ADME, organism-based, Macaca fascicularis. Further details: dose 1 mg/kg, route intravenous. Conditions: in vivo.
Data set [12] is described as follows: Metabolic stability in cynomolgus monkey liver microsomes assessed as half life at 1 uM. The format is ADME, Macaca fascicularis, Microsome.
A short description of data set [13]: Metabolic stability in cynomolgus monkey liver microsomes assessed as remains after 60 mins at 1 uM. In kind it is ADME, Macaca fascicularis, Microsome. Conditions: read-out: Stability.

The term solubility denotes how much of the substance goes into solution per volume. A word on the Papp A→B: it is how fast a substance crosses the layer from the apical side. As usually defined, the bioavailability is the share of a dose that reaches the circulation, judged against a reference dose that is usually intravenous. The AUC is concentration integrated over time. On to `CC(C)CCn1nc(-c2cccs2)c(O)c(C2=Nc3ccc(NS(C)(=O)=O)cc3S(=O)(=O)N2)c1=O`, for which the solubility in data set [1] was > 100 µM. The Papp A→B at 10 µM in [2] came out at 0.03 ×10⁻⁶ cm/s. The bioavailability in data set [3] was determined as 2%. The AUC came out at 1330 ng·h/mL in the data set with Cynomolgus monkey [4] and 30 ng·h/mL in the data set on Cynomolgus monkey [5].

A word on the half-life: it is how long it takes for the measured level to halve. Broadly, the EC50 is the concentration at which the effect is half-maximal. In general, CC50 refers to the concentration giving 50% cytotoxicity. As usually defined, the IC50 is the point on the concentration scale where inhibition reaches its midpoint. Consider `O=c1c(C2=NS(=O)(=O)c3cc(C4CCCS4(=O)=O)ccc3N2)c(O)c2cccn2n1Cc1ccc(F)cc1` (racemic), for which, in [6], the half-life at 5 µM is > 60 min. In the data set on Hepatitis C virus [7], this compound came in with an EC50 of 380 nM. In addition, the CC50 at 72 h in data set [8] was > 33000 nM. The remaining at 1 h, 5 µM in data set [9] is 100%. Also, the IC50 with Hepatitis C virus [10] stood at 130 nM.

`O=c1c(C2=NS(=O)(=O)c3ccccc3N2)c(O)c2cccn2n1Cc1ccc(F)cc1`: the t1/2 with Liver microsomes came out at 45 min. Further, the IC50 in the data set with Hepatitis C virus [10] was 850 nM.

By clearance is commonly meant the rate of elimination divided by the concentration. For the compound `CC(C)CCn1c(=O)c(C2=NS(=O)(=O)c3ccccc3N2)c(O)c2cccn21`, in data set [1], the solubility was > 200 µM. The same compound showed a clearance in data set [11] of 49 mL/min/kg. For the same compound, in data set [12], the half-life at 1 µM came to 11 min. Moreover, in data set [2], the Papp A→B at 10 µM amounted to 11 ×10⁻⁶ cm/s. The half-life at 5 µM in data set [6] is 14 min. For the same compound, it took 5300 nM to reach a half-maximal effect in the data set with Hepatitis C virus [7] (EC50). The same compound had a bioavailability in [3] of 63%. The values for the AUC with Cynomolgus monkey [4] and with Cynomolgus monkey [5] were 20500 ng·h/mL and 12900 ng·h/mL, respectively. Moreover, in [8], the CC50 at 72 h was > 100000 nM. Moreover, the IC50 in the data set with Hepatitis C virus [10] came to 980 nM.

In the data set on Hepatitis C virus [10], `CC(C)CCn1c(=O)c(C2=NS(=O)(=O)c3cc(NS(C)(=O)=O)ccc3N2)c(O)c2cc(C#N)cn21` returned an IC50 of 320 nM.

Take `CC(C)CCn1c(=O)c(C2=NS(=O)(=O)c3cc(NS(C)(=O)=O)ccc3N2)c(O)c2cc(F)cn21`: the half-life at 5 µM in data set [6] is > 60 min. The compound also registered an EC50 in the data set on Hepatitis C virus [7] of 19 nM. In addition, the CC50 at 72 h in data set [8] was > 1000 nM. Also, the remaining at 1 h, 5 µM in data set [9] was found to be 78%. Also, the IC50 in the data set with Hepatitis C virus [10] amounted to 27 nM.

Turning to `CC(C)CCn1c(=O)c(C2=NS(=O)(=O)c3cc(NS(=O)(=O)C4CC4)ccc3N2)c(O)c2cccn21`, the solubility in [1] is > 100 µM. Moreover, in data set [11], the clearance is 5 mL/min/kg. Besides, in [12], the half-life at 1 µM is > 60 min. Moreover, in data set [2], the apical-to-basolateral permeability (Papp A→B) at 10 µM amounted to 0.8 ×10⁻⁶ cm/s. The half-life at 5 µM in data set [6] was 59 min. For the same compound, a half-maximal response in the data set with Hepatitis C virus [7] (EC50) required 96 nM. For the same compound, the bioavailability in data set [3] came to 4%. Besides, the AUC with Cynomolgus monkey [4] was 3770 ng·h/mL; in the data set on Cynomolgus monkey [5] it was 141 ng·h/mL. Also, the CC50 at 72 h in data set [8] was > 33000 nM. In the data set on Hepatitis C virus [10], this compound returned a concentration for half-maximal inhibition (IC50) of 160 nM. Also, the remaining at 1 h, 1 µM in [13] came to 87%.

With `CS(=O)(=O)Nc1ccc2c(c1)S(=O)(=O)N=C(c1c(O)c3cccn3n(Cc3ccc(F)c(Cl)c3)c1=O)N2`, the half-life at 5 µM in data set [6] was > 60 min. Further, the EC50 in the data set with Hepatitis C virus [7] came out at 22 nM. Besides, in data set [8], the CC50 at 72 h was > 1000 nM. In addition, the remaining at 1 h, 5 µM in data set [9] is 102%. Besides, the IC50 with Hepatitis C virus [10] was determined as 25 nM.

Turning to `CC(C)(C)CCn1c(=O)c(C2=NS(=O)(=O)c3cc(NS(C)(=O)=O)ccc3N2)c(O)c2cccn21`, the solubility in [1] was > 100 µM. In data set [11], this compound had a clearance of 14 mL/min/kg. The half-life at 1 µM in data set [12] worked out at 14 min. The apical-to-basolateral permeability (Papp A→B) at 10 µM in data set [2] came to 0.7 ×10⁻⁶ cm/s. Also, the half-life at 5 µM in data set [6] is 10 min. Besides, a half-maximal effect in the data set with Hepatitis C virus [7] (EC50) was put at 5 nM. Besides, the bioavailability in data set [3] was 2%. In addition, the AUC with Cynomolgus monkey [4] is 1210 ng·h/mL; in the data set on Cynomolgus monkey [5], 25 ng·h/mL. The CC50 at 72 h in data set [8] was > 1000 nM. Also, in the data set with Hepatitis C virus [10], the IC50 is < 10 nM.

For `CN(c1ccc2c(c1)S(=O)(=O)N=C(c1c(O)c3cccn3n(CCC(C)(C)C)c1=O)N2)S(C)(=O)=O`, the half-life at 5 µM in data set [6] worked out at 49 min. Besides, the midpoint of the response with Hepatitis C virus [7], the EC50, lay at 120 nM. The half-maximal cytotoxic concentration (CC50) at 72 h in data set [8] is > 33000 nM. The same compound had an IC50 with Hepatitis C virus [10] of 60 nM.

For the compound `CC(C)CCn1c(=O)c(C2=Nc3ccc(NS(C)(=O)=O)cc3S(=O)(=O)N2)c(O)c2cccn21`, the solubility in [1] is > 100 µM. Moreover, in data set [12], the half-life at 1 µM is > 60 min. Further, in data set [2], the Papp A→B at 10 µM was 0.2 ×10⁻⁶ cm/s. Moreover, in data set [6], the half-life at 5 µM was found to be 42 min. Further, in the data set on Hepatitis C virus [7], the EC50 was 8.5 nM. The CC50 at 72 h in [8] was > 1000 nM. In addition, the IC50 with Hepatitis C virus [10] was < 10 nM. The same compound gave an AUC in the data set on Cynomolgus monkey [5] of 83 ng·h/mL. Further, the remaining at 1 h, 1 µM in data set [13] was determined as 66%.

On to `COc1ccc2c(c1)S(=O)(=O)N=C(c1c(O)c3cccn3n(CCC(C)C)c1=O)N2`, for which the midpoint of the response in the data set with Hepatitis C virus [7], the EC50, lay at 17000 nM. The CC50 at 72 h in [8] is > 100000 nM. For the same compound, the IC50 in the data set on Hepatitis C virus [10] stood at 2200 nM.

As to `CC(C)CCn1c(=O)c(C2=NS(=O)(=O)c3cc(N(C)S(C)(=O)=O)ccc3N2)c(O)c2cccn21`, the solubility in data set [1] was > 100 µM. The compound further showed a clearance in data set [11] of 16 mL/min/kg. Further, the half-life at 1 µM in [12] is 60 min. For the same compound, in data set [2], the apical-to-basolateral permeability (Papp A→B) at 10 µM was determined as 4.3 ×10⁻⁶ cm/s. Also, the half-life at 5 µM in [6] is > 60 min. Besides, in the data set on Hepatitis C virus [7], the EC50 stood at 190 nM. The compound also showed a bioavailability in [3] of 7%. Moreover, the exposure (AUC) with Cynomolgus monkey [4] is 1060 ng·h/mL; with Cynomolgus monkey [5], 79 ng·h/mL. Further, the CC50 at 72 h in [8] is > 33000 nM. The remaining at 1 h, 5 µM in data set [9] came to 55%. In the data set with Hepatitis C virus [10], the IC50 was found to be 110 nM.

`CC(C)NCC(O)COc1cccc2ccccc12` (stereo unspecified) [PROPRANOLOL]: the Papp A→B at 10 µM in data set [2] was found to be 10 ×10⁻⁶ cm/s.

Take `CN(c1ccc2c(c1)S(=O)(=O)N=C(c1c(O)c3cccn3n(Cc3ccc(F)cc3)c1=O)N2)S(C)(=O)=O`: the solubility in data set [1] was > 60 µM. Further, the clearance in data set [11] was found to be 9 mL/min/kg. Also, the half-life at 1 µM in [12] is > 60 min. Besides, in data set [2], the Papp A→B at 10 µM stood at 0.9 ×10⁻⁶ cm/s. For the same compound, the half-life at 5 µM in data set [6] was > 60 min. Further, in the data set on Hepatitis C virus [7], the half-maximal effective concentration (EC50) was determined as 330 nM. Also, in data set [3], the bioavailability turned out to be 6%. The AUC in the data set with Cynomolgus monkey [4] was 1780 ng·h/mL; with Cynomolgus monkey [5] it was 107 ng·h/mL. Besides, in [8], the CC50 at 72 h is > 10000 nM. For the same compound, the remaining at 1 h, 5 µM in data set [9] was determined as 90%. In the data set on Hepatitis C virus [10], this compound had an IC50 of 130 nM. The remaining at 1 h, 1 µM in data set [13] came to 90%.

As for `CS(=O)(=O)Nc1ccc2c(c1)S(=O)(=O)N=C(c1c(O)c3cccn3n(Cc3ccc(F)cc3)c1=O)N2`, the solubility in data set [1] is > 100 µM. Besides, the clearance in data set [11] amounted to 31 mL/min/kg. Besides, the half-life at 1 µM in data set [12] was > 60 min. Also, the Papp A→B at 10 µM in [2] is 0.1 ×10⁻⁶ cm/s. In data set [6], the half-life at 5 µM was > 60 min. This compound showed a bioavailability in [3] of 1%. Besides, the results for the area under the curve (AUC) in the data set with Cynomolgus monkey [4] and in the data set on Cynomolgus monkey [5] were 539 ng·h/mL and 6 ng·h/mL, respectively. Moreover, in [8], the CC50 at 72 h was > 1000 nM. For the same compound, in data set [9], the remaining at 1 h, 5 µM was 86%. Besides, the IC50 in the data set with Hepatitis C virus [10] was < 10 nM. The remaining at 1 h, 1 µM in [13] came out at 90%.
